According to patent US11447503B2, “Pyridine carbamates and their use as GLUN2B receptor modulators” (JANSSEN PHARMACEUTICA NV, priority 2019, dated 2022):

Molecular target: human GluN1/GluN2B NMDA receptors (Homo sapiens, UniProt Q05586+Q13224)
Assay: Cell-based calcium flux (FLIPR) assay on cloned human GluN1/GluN2B ion channels expressed in mammalian cells
Settings: standard assay; glutamate ~EC40, 10 μM glycine; stable Tet-On cell line
Method: 5.3. Biological Assays: Effect of Compounds of Formula (I) on Cloned Human GluN1/GluN2B Ion Channels Expressed in Mammalian Cells
NMDA receptors are ion channels that are highly permeable to Ca^2+ ions, rendering it possible to monitor NMDA receptor function using cell-based calcium flux assay. In this assay, co-agonists glutamate and glycine are added to cells heterologously expressing human GluN1/GluN2B NMDA receptors to initiate cellular Ca^2+ influx. The time course of the changes in intracellular calcium is measured using a fluorescent dye and a FLIPR (Fluorometric Imaging Plate Reader) device.
Twenty four hours before measurements, the expression of the NMDA receptors in the stable cell line is induced with Tet-On inducible system in the presence of a non-selective NMDA receptor blocker. On the day of the experiment, cell culture media is carefully washed and the cells are loaded with Calcium 5 Dye Kit (Molecular Devices) in dye loading buffer containing 137 mM NaCl, 4 mM KCl, 2 mM CaCl2, 0.5 mM MgCl2 (standard assay) or 1.5 mM MgCl2 (HTS assay), 10 mM HEPES and 5 mM D-glucose; pH 7.4. After 1 h incubation at the room temperature, the dye is washed away with the assay buffer (137 mM NaCl (standard assay) or 150 mM (HTS assay), 4 mM KCl (standard assay) or 3 mM (HTS assay), 2 mM CaCl2, 0.01 mM EDTA, 10 mM HEPES and 5 mM D-glucose; pH 7.4) In the FLIPR TETRA reader, various concentrations of the test compounds are added to the cells for 5 min while fluorescence is monitored to detect potential agonist activity. Next, co-agonists, glutamate and glycine are added for another 5 minutes. The concentration of glutamate corresponding to ˜EC40 (standard assay) or EC40 (HTS assay) is used to maximize the assay's signal window and ability to detect NMDA receptor antagonists and negative allosteric modulators. A saturating concentration (10 μM) of glycine is also present in the assay. A non-selective NMDA receptor antagonist, (+)MK-801 is used as a positive control for antagonist activity. The fluorescent signal in the presence of test compounds is quantified and normalized to the signal defined by the appropriate control wells.

human GluN1/GluN2B NMDA receptors, sequence (Q13224 27-1484, other chains not shown): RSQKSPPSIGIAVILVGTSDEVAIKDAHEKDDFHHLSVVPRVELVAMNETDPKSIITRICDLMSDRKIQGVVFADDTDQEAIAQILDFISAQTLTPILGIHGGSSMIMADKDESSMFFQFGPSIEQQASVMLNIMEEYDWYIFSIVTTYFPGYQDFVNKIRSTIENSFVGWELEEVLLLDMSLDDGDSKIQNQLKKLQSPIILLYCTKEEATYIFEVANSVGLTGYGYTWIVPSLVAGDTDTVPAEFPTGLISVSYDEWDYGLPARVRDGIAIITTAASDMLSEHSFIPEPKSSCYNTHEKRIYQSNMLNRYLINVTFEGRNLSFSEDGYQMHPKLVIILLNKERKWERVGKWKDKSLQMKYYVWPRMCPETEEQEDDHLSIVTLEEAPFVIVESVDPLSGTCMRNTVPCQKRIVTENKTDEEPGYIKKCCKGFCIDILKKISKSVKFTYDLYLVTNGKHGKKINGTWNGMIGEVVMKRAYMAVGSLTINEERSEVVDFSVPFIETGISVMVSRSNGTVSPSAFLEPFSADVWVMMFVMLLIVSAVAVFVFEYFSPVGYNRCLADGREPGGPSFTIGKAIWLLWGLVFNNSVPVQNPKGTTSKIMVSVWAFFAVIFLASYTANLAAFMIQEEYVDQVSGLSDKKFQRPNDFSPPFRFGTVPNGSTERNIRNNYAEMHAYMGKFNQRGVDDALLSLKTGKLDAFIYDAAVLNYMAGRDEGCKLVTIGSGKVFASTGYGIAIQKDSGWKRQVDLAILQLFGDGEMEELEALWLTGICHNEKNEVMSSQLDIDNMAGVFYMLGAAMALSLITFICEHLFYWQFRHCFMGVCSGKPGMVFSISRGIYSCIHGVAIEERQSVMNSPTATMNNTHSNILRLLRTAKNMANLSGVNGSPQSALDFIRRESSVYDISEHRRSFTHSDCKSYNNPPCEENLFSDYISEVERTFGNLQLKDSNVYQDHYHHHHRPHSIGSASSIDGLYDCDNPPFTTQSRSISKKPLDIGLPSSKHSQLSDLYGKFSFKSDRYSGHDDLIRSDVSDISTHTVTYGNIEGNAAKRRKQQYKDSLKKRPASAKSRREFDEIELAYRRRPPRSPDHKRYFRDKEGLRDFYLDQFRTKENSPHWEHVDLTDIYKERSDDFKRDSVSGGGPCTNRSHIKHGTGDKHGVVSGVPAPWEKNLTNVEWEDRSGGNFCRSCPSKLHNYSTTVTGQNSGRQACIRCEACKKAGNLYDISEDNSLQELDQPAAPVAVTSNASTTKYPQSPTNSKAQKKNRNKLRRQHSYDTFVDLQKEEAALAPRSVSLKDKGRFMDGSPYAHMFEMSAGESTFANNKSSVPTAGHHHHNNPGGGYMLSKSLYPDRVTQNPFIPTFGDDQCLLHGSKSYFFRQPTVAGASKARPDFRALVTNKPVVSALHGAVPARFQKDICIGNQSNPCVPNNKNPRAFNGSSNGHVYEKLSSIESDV

Row | SMILES | IC50
1 | O=C1OC2(CCC2)CN1Cc1cncc(-c2ccc(F)c(OC(F)F)c2)c1 [Example 12, 6-[[5-[3-(Difluoromethoxy)-4-fluoro-phenyl]-3-pyridyl]methyl]-8-oxa-6-azaspiro[3.4]octan-7-one] | 59 nM
2 | Cc1cc(-c2cncc(CN3CCOC3=O)c2)ccc1F [Example 44, 3-[[5-(4-Fluoro-3-methyl-phenyl)-3-pyridyl]methyl]oxazolidin-2-one] | 12 nM
3 | CC1(C)CCN(Cc2cncc(-c3ccc(F)c(C(F)F)c3)c2)C(=O)O1 [Example 30, 3-[[5-[3-(Difluoromethyl)-4-fluoro-phenyl]-3-pyridyl]methyl]-6,6-dimethyl-1,3-oxazinan-2-one] | 603 nM
4 | CC1CN(Cc2cncc(-c3ccc(F)c(OC(F)F)c3)c2)C(=O)O1 (single isomer, unassigned) [Example 8, (R*)-3-[[5-[3-(Difluoromethoxy)-4-fluoro-phenyl]-3-pyridyl]methyl]-5-methyl-oxazolidin-2-one] | 11 nM
5 | C[C@@H]1COC(=O)N1Cc1cc(-c2ccc(F)c(C(F)F)c2)cnc1C(C)(F)F [Example 143, (4R)-3-[[2-(1,1-Difluoroethyl)-5-[3-(difluoromethyl)-4-fluoro-phenyl]-3-pyridyl]methyl]-4-methyl-oxazolidin-2-one] | 180 nM
6 | COc1ncc(-c2ccc(F)c(C(F)F)c2)cc1CN1C(=O)OC[C@@H]1C [Example 120, (4S)-3-[[5-[3-(Difluoromethyl)-4-fluoro-phenyl]-2-methoxy-3-pyridyl]methyl]-4-methyl-oxazolidin-2-one] | 121 nM
7 | CC(C)[C@@H]1COC(=O)N1Cc1cncc(-c2ccc(F)c(C(F)F)c2)c1 [Example 31, (4R)-3-[[5-[3-(Difluoromethyl)-4-fluoro-phenyl]-3-pyridyl]methyl]-4-isopropyl-oxazolidin-2-one] | > 3000 nM
8 | CC1CN(Cc2cncc(-c3ccc(F)c(OC(F)F)c3)c2)C(=O)O1 (racemic) [Example 6, (R/S)-3-[[5-[3-(Difluoromethoxy)-4-fluoro-phenyl]-3-pyridyl]methyl]-5-methyl-oxazolidin-2-one] | 15 nM
9 | COc1ncc(-c2cccc(Cl)c2)cc1CN1CCOC1=O [Example 109, 3-[[5-(3-Chlorophenyl)-2-methoxy-3-pyridyl]methyl]oxazolidin-2-one] | 477 nM
10 | COc1ncc(-c2ccc(F)c(OC(F)F)c2)cc1CN1C(=O)OC[C@@H]1C [Example 117, (4S)-3-[[5-[3-(Difluoromethoxy)-4-fluoro-phenyl]-2-methoxy-3-pyridyl]methyl]-4-methyl-oxazolidin-2-one] | 60 nM
11 | [2H]C([2H])(c1cncc(-c2ccc(F)c(OC(F)F)c2)c1)N1CCCOC1=O [Example 55, 3-[Dideuterio-[5-[3-(difluoromethoxy)-4-fluoro-phenyl]-3-pyridyl]methyl]-1,3-oxazinan-2-one] | 12 nM
12 | CC(C)[C@H]1COC(=O)N1Cc1cncc(-c2ccc(F)c(C(F)F)c2)c1 [Example 23, (4S)-3-[[5-[3-(Difluoromethyl)-4-fluoro-phenyl]-3-pyridyl]methyl]-4-isopropyl-oxazolidin-2-one] | 2600 nM
13 | COc1ncc(-c2cc(C)cc(F)c2)cc1CN1CCOC1=O [Example 104, 3-[[5-(3-Fluoro-5-methyl-phenyl)-2-methoxy-3-pyridyl]methyl]oxazolidin-2-one] | 159 nM
14 | CC(C)C1CN(Cc2cncc(-c3ccc(F)c(OC(F)F)c3)c2)C(=O)O1 (racemic) [Example 14, (R/S)-3-[[5-[3-(Difluoromethoxy)-4-fluoro-phenyl]-3-pyridyl]methyl]-5-isopropyl-oxazolidin-2-one] | 97 nM
15 | Cc1ncc(-c2ccc(F)c(OC(F)F)c2)cc1CN1CC(C)(C)OC1=O [Example 87, 3-[[5-[3-(Difluoromethoxy)-4-fluoro-phenyl]-2-methyl-3-pyridyl]methyl]-5,5-dimethyl-oxazolidin-2-one] | 373 nM
16 | Cc1ncc(-c2ccc(F)c(OC(F)F)c2)cc1CN1C(=O)OCC1C (racemic) [Example 81, (R/S)-3-[[5-[3-(Difluoromethoxy)-4-fluoro-phenyl]-2-methyl-3-pyridyl]methyl]-4-methyl-oxazolidin-2-one] | 79 nM
17 | CC(F)(F)c1ncc(-c2ccc(F)c(OC(F)F)c2)cc1CN1CC2(CCC2)OC1=O [Example 147, 6-[[2-(1,1-Difluoroethyl)-5-[3-(difluoromethoxy)-4-fluoro-phenyl]-3-pyridyl]methyl]-8-oxa-6-azaspiro[3.4]octan-7-one] | 392 nM
18 | O=C1OCCN1Cc1cncc(-c2cccc(C(F)(F)F)c2)c1 [Example 46, 3-[[5-[3-(Trifluoromethyl)phenyl]-3-pyridyl]methyl]oxazolidin-2-one] | 26 nM
19 | COc1ncc(-c2ccc(F)c(C)c2)cc1CN1CCOC1=O [Example 116, 3-[[5-(4-Fluoro-3-methyl-phenyl)-2-methoxy-3-pyridyl]methyl]oxazolidin-2-one] | 18 nM
20 | Cc1cc(-c2cnc(C)c(CN3CCCOC3=O)c2)ccc1F [Example 66, 3-[[5-(4-Fluoro-3-methyl-phenyl)-2-methyl-3-pyridyl]methyl]-1,3-oxazinan-2-one] | 23 nM
21 | CC(F)(F)c1ncc(-c2ccc(F)c(OC(F)F)c2)cc1CN1CC2(CC2)OC1=O [Example 146, 5-[[2-(1,1-Difluoroethyl)-5-[3-(difluoromethoxy)-4-fluoro-phenyl]-3-pyridyl]methyl]-7-oxa-5-azaspiro[2.4]heptan-6-one] | 212 nM
22 | Cc1ncc(-c2ccc(F)c(C)c2F)cc1CN1CCCOC1=O [Example 71, 3-[[5-(2,4-Difluoro-3-methyl-phenyl)-2-methyl-3-pyridyl]methyl]-1,3-oxazinan-2-one] | 22 nM
23 | O=C1OC(CN2CCOCC2)CN1Cc1cncc(-c2ccc(F)c(OC(F)F)c2)c1 (single isomer, unassigned) [Example 19, (S*)-3-[[5-[3-(Difluoromethoxy)-4-fluoro-phenyl]-3-pyridyl]methyl]-5-(morpholinomethyl)oxazolidin-2-one] | 1350 nM
24 | O=C1OC2(CC2)CN1Cc1cncc(-c2ccc(F)c(C(F)F)c2)c1 [Example 29, 5-[[5-[3-(Difluoromethyl)-4-fluoro-phenyl]-3-pyridyl]methyl]-7-oxa-5-azaspiro[2.4]heptan-6-one] | 12 nM
25 | Cc1ncc(-c2ccc(F)c(C(F)F)c2)cc1CN1CC(C)OC1=O (racemic) [Example 94, (R/S)-3-[[5-[3-(Difluoromethyl)-4-fluoro-phenyl]-2-methyl-3-pyridyl]methyl]-5-methyl-oxazolidin-2-one] | 21 nM
26 | [2H]C([2H])(c1cc(-c2ccc(F)c(C(F)F)c2)cnc1C)N1CCOC1=O [Example 59, 3-[Dideuterio-[5-[3-(difluoromethyl)-4-fluoro-phenyl]-2-methyl-3-pyridyl]methyl]oxazolidin-2-one] | 13 nM
27 | Cc1ncc(-c2ccc(F)c(F)c2)cc1CN1CCCOC1=O [Example 67, 3-[[5-(3,4-Difluorophenyl)-2-methyl-3-pyridyl]methyl]-1,3-oxazinan-2-one] | 344 nM
28 | Cc1cc(-c2cnc(C(F)F)c(CN3CCOC3=O)c2)ccc1F [Example 128, 3-[[2-(Difluoromethyl)-5-(4-fluoro-3-methyl-phenyl)-3-pyridyl]methyl]oxazolidin-2-one] | 204 nM
